In brackets after ≈: the same amount, converted by molar mass.
system: coxsackievirus type B4 (CB4); experiment: Inhibition of CB4 cytopathogenic effect (CPE) in LLC-MK2 cells; type: cell-based; conditions: CI = CD50 (LLC-MK2)/IC50 (virus CPE)

| Structure (SMILES) | CI CB4 (C)/(A) |
| --- | --- |
| OCCCCn1c(CNc2ccncc2)nc2ccccc21 [LII] | > 6 |
| Cc1cccc(-n2c(CNc3ccncc3)nc3ccccc32)c1 [LXIII] | > 18 |
| FC(F)(F)c1ccc(-n2c(CNc3ccncc3)nc3ccccc32)cc1 [LXIV] | > 18 |
| Clc1ccc(-n2c(CNc3ccncc3)nc3ccccc32)cc1Cl [LXIX] | > 18 |

same assay, conditions: Coxsackievirus; * Virus CPE inhibition assay, LLC-MK2 cells, 37° C.

| Structure (SMILES) | IC50 [µg/mL] |
| --- | --- |
| OCCCCn1c(CNc2ccncc2)nc2ccccc21 [LII] | 17.8 (≈ 60.1 µM) |
| c1ccc(CCCn2c(CNc3ccncc3)nc3ccccc32)cc1 [LVI] | > 100 |
| Cc1cccc(-n2c(CNc3ccncc3)nc3ccccc32)c1 [LXIII] | 5.6 (≈ 17.8 µM) |
| Cc1ccccc1-n1c(CNc2ccncc2)nc2ccccc21 [LXII] | > 100 |
| FC(F)(F)c1ccc(-n2c(CNc3ccncc3)nc3ccccc32)cc1 [LXIV] | 5.6 (≈ 15.2 µM) |
| Clc1ccc(-n2c(CNc3ccncc3)nc3ccccc32)cc1Cl [LXIX] | 5.6 (≈ 15.2 µM) |
| COc1ccccc1-n1c(CNc2ccncc2)nc2ccccc21 [LXVII] | > 100 |

system: poliovirus type 2 (Polio2); experiment: microbe, parasite or virus in culture; type: cell-based; conditions: CI = CD50 (LLC-MK2)/IC50 (plaque)

| Structure (SMILES) | CI Polio2 (C)/(A) |
| --- | --- |
| CC(C)CCn1c(CNc2ccncc2)nc2ccccc21.Cl [L, 1-isoamyl-2-(4-pyridylaminomethyl)benzimidazole hydrochloride] | 329 |
| CCCCn1c(CNc2ccncc2)nc2cc(C)ccc21 [XLII] | 51 |
| CCCCCn1c(CNc2ccncc2)nc2ccccc21 [XVI] | 74 |
| CCCCn1c(CNc2ccncc2)nc2ccccc21 [XV] | > 625 |
| Fc1ccc(-n2c(CNc3ccncc3)nc3ccccc32)cc1 [XXIII] | > 256 |
| c1ccc(-n2c(CNc3ccncc3)nc3ccccc32)cc1 [XXI] | 29 |
| CCc1cc2[nH]c(CNc3ccncc3)nc2cc1Br [XXXI, 2-(4-pyridylaminomethyl)-5(6)-ethyl-6(5)-bromobenzimidazole] | 1 |
| CCc1cc2nc(CNc3ccncc3)[nH]c2cc1Cl [XXXII] | 3 |
| Cn1c(CNc2ccncc2)nc2ccccc21 [X] | > 6 |

same assay, conditions: Enterovirus C, LLC-MK2, read-out: IC50 Polio2

| Structure (SMILES) | IC50 [µg/mL] |
| --- | --- |
| Ic1ccc2[nH]c(CNc3ccncc3)nc2c1 [III] | > 100 |
| CC(C)CCn1c(CNc2ccncc2)nc2ccccc21.Cl [L, 1-isoamyl-2-(4-pyridylaminomethyl)benzimidazole hydrochloride] | 4.3 |
| CCCCn1c(CNc2ccncc2)nc2cc(C)ccc21 [XLII] | 27.6 (≈ 93.7 µM) |
| CCCCCn1c(CNc2ccncc2)nc2ccccc21 [XVI] | 19 (≈ 64.5 µM) |
| CCCCn1c(CNc2ccncc2)nc2ccccc21 [XV] | 3.2 (≈ 11.4 µM) |
| Fc1ccc(-n2c(CNc3ccncc3)nc3ccccc32)cc1 [XXIII] | 7.8 (≈ 24.5 µM) |
| c1ccc(-n2c(CNc3ccncc3)nc3ccccc32)cc1 [XXI] | 48 (≈ 160 µM) |
| CCc1cc2[nH]c(CNc3ccncc3)nc2cc1Br [XXXI, 2-(4-pyridylaminomethyl)-5(6)-ethyl-6(5)-bromobenzimidazole] | 82 (≈ 248 µM) |
| CCc1cc2nc(CNc3ccncc3)[nH]c2cc1Cl [XXXII] | 35 (≈ 122 µM) |
| Cn1c(CNc2ccncc2)nc2ccccc21 [X] | 170 (≈ 713 µM) |

system: enterovirus type 70 (EV70); experiment: Inhibition of EV70 plaque formation in LLC-MK2 cells; type: cell-based; conditions: CI = CD50 (LLC-MK2)/IC50 (plaque)

| Structure (SMILES) | CI EV70 (C)/(A) |
| --- | --- |
| Ic1ccc2[nH]c(CNc3ccncc3)nc2c1 [III] | > 15 |
| CC(C)CCn1c(CNc2ccncc2)nc2ccccc21.Cl [L, 1-isoamyl-2-(4-pyridylaminomethyl)benzimidazole hydrochloride] | 1,010 |
| Cc1cccc(-n2c(CNc3ccncc3)nc3ccccc32)c1 [LXIII] | > 18 |
| CCCCn1c(CNc2ccncc2)nc2cc(C)ccc21 [XLII] | 240 |
| CCCCCn1c(CNc2ccncc2)nc2ccccc21 [XVI] | 643 |
| CCCCn1c(CNc2ccncc2)nc2ccccc21 [XV] | > 1,429 |
| Fc1ccc(-n2c(CNc3ccncc3)nc3ccccc32)cc1 [XXIII] | > 1,818 |
| c1ccc(-n2c(CNc3ccncc3)nc3ccccc32)cc1 [XXI] | 943 |
| CCc1cc2[nH]c(CNc3ccncc3)nc2cc1Br [XXXI, 2-(4-pyridylaminomethyl)-5(6)-ethyl-6(5)-bromobenzimidazole] | 74 |
| CCc1cc2nc(CNc3ccncc3)[nH]c2cc1Cl [XXXII] | 134 |
| Cn1c(CNc2ccncc2)nc2ccccc21 [X] | > 30 |

same assay, conditions: Enterovirus D; plaque reduction, LLC-MK2 cells, 33° C.

| Structure (SMILES) | IC50 [µg/mL] |
| --- | --- |
| Ic1ccc2[nH]c(CNc3ccncc3)nc2c1 [III] | 6.5 (≈ 18.6 µM) |
| CC(C)CCn1c(CNc2ccncc2)nc2ccccc21.Cl [L, 1-isoamyl-2-(4-pyridylaminomethyl)benzimidazole hydrochloride] | 1.4 |
| Cc1cccc(-n2c(CNc3ccncc3)nc3ccccc32)c1 [LXIII] | 5.6 (≈ 17.8 µM) |
| CCCCn1c(CNc2ccncc2)nc2cc(C)ccc21 [XLII] | 5.9 (≈ 20 µM) |
| CCCCCn1c(CNc2ccncc2)nc2ccccc21 [XVI] | 2.2 (≈ 7.47 µM) |
| CCCCn1c(CNc2ccncc2)nc2ccccc21 [XV] | 1.4 (≈ 4.99 µM) |
| Fc1ccc(-n2c(CNc3ccncc3)nc3ccccc32)cc1 [XXIII] | 1.1 (≈ 3.46 µM) |
| c1ccc(-n2c(CNc3ccncc3)nc3ccccc32)cc1 [XXI] | 1.5 (≈ 4.99 µM) |
| CCc1cc2[nH]c(CNc3ccncc3)nc2cc1Br [XXXI, 2-(4-pyridylaminomethyl)-5(6)-ethyl-6(5)-bromobenzimidazole] | 1.2 (≈ 3.62 µM) |
| CCc1cc2nc(CNc3ccncc3)[nH]c2cc1Cl [XXXII] | 0.66 (≈ 2.3 µM) |
| Cn1c(CNc2ccncc2)nc2ccccc21 [X] | 33 (≈ 138 µM) |

system: not listed separately; experiment: in vitro; conditions: monkey, llc-mk2 cells

| Structure (SMILES) | CC50 [µg/mL] |
| --- | --- |
| Ic1ccc2[nH]c(CNc3ccncc3)nc2c1 [III] | > 100 |
| CC(C)CCn1c(CNc2ccncc2)nc2ccccc21.Cl [L, 1-isoamyl-2-(4-pyridylaminomethyl)benzimidazole hydrochloride] | 1410 |
| OCCCCn1c(CNc2ccncc2)nc2ccccc21 [LII] | > 100 |
| c1ccc(CCCn2c(CNc3ccncc3)nc3ccccc32)cc1 [LVI] | > 100 |
| Cc1cccc(-n2c(CNc3ccncc3)nc3ccccc32)c1 [LXIII] | > 100 |
| Cc1ccccc1-n1c(CNc2ccncc2)nc2ccccc21 [LXII] | > 100 |
| FC(F)(F)c1ccc(-n2c(CNc3ccncc3)nc3ccccc32)cc1 [LXIV] | > 100 |
| Clc1ccc(-n2c(CNc3ccncc3)nc3ccccc32)cc1Cl [LXIX] | > 100 |
| CCCCn1c(CNc2ccncc2)nc2cc(C)ccc21 [XLII] | 1410 (≈ 4800 µM) |
| CCCCCn1c(CNc2ccncc2)nc2ccccc21 [XVI] | 1410 (≈ 4800 µM) |
| CCCCn1c(CNc2ccncc2)nc2ccccc21 [XV] | > 2000 |
| Fc1ccc(-n2c(CNc3ccncc3)nc3ccccc32)cc1 [XXIII] | > 2000 |
| c1ccc(-n2c(CNc3ccncc3)nc3ccccc32)cc1 [XXI] | 1410 (≈ 4710 µM) |
| CCc1cc2[nH]c(CNc3ccncc3)nc2cc1Br [XXXI, 2-(4-pyridylaminomethyl)-5(6)-ethyl-6(5)-bromobenzimidazole] | 88.4 (≈ 267 µM) |
| CCc1cc2nc(CNc3ccncc3)[nH]c2cc1Cl [XXXII] | 88.4 (≈ 308 µM) |
| Cn1c(CNc2ccncc2)nc2ccccc21 [X] | > 1000 |

system: rhinovirus type 14 (HRV14); experiment: Inhibition of HRV14 plaque formation in HeLa cells; type: cell-based; conditions: Enterovirus, HRV14; plaque reduction, HeLa cells, 33° C.

| Structure (SMILES) | IC50 [µg/mL] |
| --- | --- |
| Ic1ccc2[nH]c(CNc3ccncc3)nc2c1 [III] | 6.2 (≈ 17.7 µM) |
| CC(C)CCn1c(CNc2ccncc2)nc2ccccc21.Cl [L, 1-isoamyl-2-(4-pyridylaminomethyl)benzimidazole hydrochloride] | > 100 |
| CCCCn1c(CNc2ccncc2)nc2cc(C)ccc21 [XLII] | > 50 |
| CCCCCn1c(CNc2ccncc2)nc2ccccc21 [XVI] | > 50 |
| CCCCn1c(CNc2ccncc2)nc2ccccc21 [XV] | > 50 |
| Fc1ccc(-n2c(CNc3ccncc3)nc3ccccc32)cc1 [XXIII] | 30 (≈ 94.2 µM) |
| c1ccc(-n2c(CNc3ccncc3)nc3ccccc32)cc1 [XXI] | > 50 |
| CCc1cc2[nH]c(CNc3ccncc3)nc2cc1Br [XXXI, 2-(4-pyridylaminomethyl)-5(6)-ethyl-6(5)-bromobenzimidazole] | 1.4 (≈ 4.23 µM) |
| CCc1cc2nc(CNc3ccncc3)[nH]c2cc1Cl [XXXII] | < 1 |
| Cn1c(CNc2ccncc2)nc2ccccc21 [X] | > 100 |

system: enterovirus type 70 (EV70); experiment: Inhibition of EV70 cytopathogenic effect (CPE) in LLC-MK2 cells; type: cell-based; conditions: CI = CD50 (LLC-MK2)/IC50 (virus CPE)

| Structure (SMILES) | CI EV70 (C)/(A) |
| --- | --- |
| Clc1ccc(-n2c(CNc3ccncc3)nc3ccccc32)cc1Cl [LXIX] | > 18 |

same assay, conditions: Enterovirus D; * Virus CPE inhibition assay, LLC-MK2 cells, 33° C.

| Structure (SMILES) | IC50 [µg/mL] |
| --- | --- |
| OCCCCn1c(CNc2ccncc2)nc2ccccc21 [LII] | > 100 |
| c1ccc(CCCn2c(CNc3ccncc3)nc3ccccc32)cc1 [LVI] | > 100 |
| Cc1ccccc1-n1c(CNc2ccncc2)nc2ccccc21 [LXII] | > 100 |
| FC(F)(F)c1ccc(-n2c(CNc3ccncc3)nc3ccccc32)cc1 [LXIV] | > 100 |
| Clc1ccc(-n2c(CNc3ccncc3)nc3ccccc32)cc1Cl [LXIX] | 5.6 (≈ 15.2 µM) |
| COc1ccccc1-n1c(CNc2ccncc2)nc2ccccc21 [LXVII] | > 100 |

system: coxsackievirus type B4 (CB4); experiment: Inhibition of CB4 plaque formation in LLC-MK2 cells; type: cell-based; conditions: CI = CD50 (LLC-MK2)/IC50 (plaque)

| Structure (SMILES) | CI CB4 (C)/(A) |
| --- | --- |
| Ic1ccc2[nH]c(CNc3ccncc3)nc2c1 [III] | > 3 |
| CC(C)CCn1c(CNc2ccncc2)nc2ccccc21.Cl [L, 1-isoamyl-2-(4-pyridylaminomethyl)benzimidazole hydrochloride] | 4,159 |
| CCCCn1c(CNc2ccncc2)nc2cc(C)ccc21 [XLII] | 1,010 |
| CCCCCn1c(CNc2ccncc2)nc2ccccc21 [XVI] | > 2,828 |
| CCCCn1c(CNc2ccncc2)nc2ccccc21 [XV] | > 5,405 |
| Fc1ccc(-n2c(CNc3ccncc3)nc3ccccc32)cc1 [XXIII] | > 2,410 |
| c1ccc(-n2c(CNc3ccncc3)nc3ccccc32)cc1 [XXI] | 943 |
| CCc1cc2nc(CNc3ccncc3)[nH]c2cc1Cl [XXXII] | 7 |
| Cn1c(CNc2ccncc2)nc2ccccc21 [X] | > 31 |

same assay, conditions: Coxsackievirus; plaque reduction, LLC-MK2 cells, 37° C.

| Structure (SMILES) | IC50 [µg/mL] |
| --- | --- |
| Ic1ccc2[nH]c(CNc3ccncc3)nc2c1 [III] | 33 (≈ 94.2 µM) |
| CC(C)CCn1c(CNc2ccncc2)nc2ccccc21.Cl [L, 1-isoamyl-2-(4-pyridylaminomethyl)benzimidazole hydrochloride] | 0.34 |
| CCCCn1c(CNc2ccncc2)nc2cc(C)ccc21 [XLII] | 1.4 (≈ 4.76 µM) |
| CCCCCn1c(CNc2ccncc2)nc2ccccc21 [XVI] | < 0.5 |
| CCCCn1c(CNc2ccncc2)nc2ccccc21 [XV] | 0.37 (≈ 1.32 µM) |
| Fc1ccc(-n2c(CNc3ccncc3)nc3ccccc32)cc1 [XXIII] | 0.83 (≈ 2.61 µM) |
| c1ccc(-n2c(CNc3ccncc3)nc3ccccc32)cc1 [XXI] | 1.5 (≈ 4.99 µM) |
| CCc1cc2[nH]c(CNc3ccncc3)nc2cc1Br [XXXI, 2-(4-pyridylaminomethyl)-5(6)-ethyl-6(5)-bromobenzimidazole] | > 10 |
| CCc1cc2nc(CNc3ccncc3)[nH]c2cc1Cl [XXXII] | 12.5 (≈ 43.6 µM) |
| Cn1c(CNc2ccncc2)nc2ccccc21 [X] | 32 (≈ 134 µM) |

Source: patent publication US4818761A, “2-(4-pyridylaminomethyl)-benzimidazole derivatives having antiviral activity” (priority 1986, dated 1989)
